The source of these data is PMC10895676, “Antiviral Activity of Lipophilic Nucleoside Tetraphosphate Compounds” (Journal of Medicinal Chemistry, 2024).

One series concerns CD4+ T-cell (CEM). To be noted: CEM cell proliferation; read-out: toxicity CC50; cited from earlier work.
Series [1] deals with HIV-1 (HE). To be noted: CEM/0 cells; cited from earlier work.
The conditions of series [2]: PBS; cited from earlier work.
Series [3] concerns HIV-1 (HE). The series is described as follows: Anti-HIV replication assay, HIV-1 (HE) in wild-type CEM/0 cells. Type of series: cell-based. To be noted: Human immunodeficiency virus 1, CCRF-CEM; wild-type CEM/0 cells; mean ± SD, n = 2–3; read-out: HIV-1 (HE) EC50. The protocol: Inhibition of HIV-1(HE)- and HIV-2(ROD)-induced cytopathogenicity in wild-type CEM/0 CEM CD4^+ T-cells and thymidine kinase-deficient CEM/TK^– cell cultures was measured in microtiter 96-well plates containing ∼3 × 10^5 CEM cells/mL infected with 100 CCID50 of HIV per milliliter and containing appropriate dilutions of the test compounds. After 4–5 days of incubation at 37 °C in a CO2-controlled humidified atmosphere, virus-induced cellular effects and syncytia cell formation were examined microscopically. The EC50 (50% effective concentration) was defined as the compound concentration required to inhibit HIV-induced giant cell formation by 50%.

Series [4] can be described thus: Hydrolysis in citrate-stabilized human plasma. Type of series: in vitro ADME. To be noted: 37 °C, read-out: t1/2 in citrate-stabilized human plasma (converted). The protocol: Finally, the supernatant was divided into aliquots and frozen at −80 °C.
(§1) Two different samples, including 10 μL of water and 10 μL of 6.0 mM hydrolysis solution, were prepared in 2 mL Eppendorf vials. Next, 50 μL of human CEM cell extracts or 50 μL of human citrate plasma were added to the mixture, the reaction was started, and the mixture was incubated at 37 °C for different time periods. The reactions were stopped by the addition of 150 μL of MeOH. The resulting suspension was kept on ice for 5 min, followed by defrosting and centrifugation at 14,000 rpm (Heraeus, Biofuge Pico) for 22 min. The supernatants (80 or 60 μL) were directly injected into HPLC. The calculation of t1/2 was performed analogously to that for the chemical hydrolysis studies.

In series [5] the test system is HIV-2 (ROD). The series is described as follows: Anti-HIV replication assay, HIV-2 (ROD) in wild-type CEM/0 cells. Type of series: cell-based. As to conditions: for selectivity index (SI): CC50/EC50, HIV-2 (ROD) in CEM cells; for EC50: Human immunodeficiency virus 2, CCRF-CEM, wild-type CEM/0 cells, mean ± SD, n = 2–3, read-out: HIV-2 (ROD) EC50. The protocol: (§2) Inhibition of HIV-1(HE)- and HIV-2(ROD)-induced cytopathogenicity in wild-type CEM/0 CEM CD4^+ T-cells and thymidine kinase-deficient CEM/TK^– cell cultures was measured in microtiter 96-well plates containing ∼3 × 10^5 CEM cells/mL infected with 100 CCID50 of HIV per milliliter and containing appropriate dilutions of the test compounds. After 4–5 days of incubation at 37 °C in a CO2-controlled humidified atmosphere, virus-induced cellular effects and syncytia cell formation were examined microscopically.

Series [6] relates to pig liver esterase (PLE). The series is described as follows: Enzymatic hydrolysis with pig liver esterase (PLE). Type of series: in vitro ADME. As to conditions: pig liver esterase in phosphate buffer, PLE in phosphate buffer pH 7.3, 37 °C, read-out: PLE t1/2 (converted). The protocol: To confirm the enzymatic hydrolysis process, TetraPPPPro-nucleotides 4–9 bearing different kinds of lipophilic groups attached to the δ-phosph(on)ate group were incubated with PLE in phosphate buffer.
Then, 833 μL of 50 mM phosphate buffer (pH 7.3) and 125 μL of DMSO were added to the 6.0 mM hydrolysis solutions. The reaction was started by addition of 62.5 μL of PLE in phosphate buffer (100 units/mL), and the mixture was incubated at 800 rpm at 37 °C in a thermomixer. (1). At different times, aliquots (75 μL) were taken and stopped by the addition of […] of MeOH. The mixture was stored in liquid nitrogen. When testing, samples were warmed up to room temperature, and 60 μL of the liquid was directly injected into HPLC analysis. (2). 40 μL for each extraction was stored in liquid nitrogen. When testing, samples were warmed up to room temperature, and 30 μL of the liquid was taken and injected into the analytical RP-18-HPLC instrument. The calculation of t1/2 was performed analogously to that for the chemical hydrolysis studies.

Series [7] in a line: Hydrolysis in CEM/0 cell extracts. To be noted: human, 37 °C, read-out: CEM/0 cell extracts t1/2 (converted). It is filed as in vitro ADME. The protocol: Next, TetraPPPPro-nucleotides 4–9 were incubated in human CD4^+ T-lymphocyte CEM/0 cell extracts to study their stability and identify the hydrolysis products.
CEM cells were grown in RPMI-1640-based cell culture medium to a final density of ∼3 × 10^6 cells/mL. Cells were centrifuged for 10 min at 1250 rpm at 4 °C and washed twice with cold PBS, and the pellet was resuspended at 10^8 cells/mL and sonicated (Hielscher Ultrasound Techn., 100% amplitude, 3·times for 10 s) to destroy cell integrity. Next, the resulting cell suspension was centrifuged at 10,000 rpm to remove cell debris. Finally, the supernatant was divided into aliquots and frozen at −80 °C.
as §1, with “6.0 mM hydrolysis solutions of compounds 4–9 were prepared from 21 μL of 50 mM DMSO stock solutions and 154 μL of DMSO. Two” for “Two”

Series [8] deals with HIV-2 (ROD). The series is described as follows: Anti-HIV replication assay, HIV-2 (ROD) in thymidine kinase-deficient CEM/TK– cells. It is filed as cell-based. To be noted: for selectivity index (SI): CC50/EC50, HIV-2 (ROD) in CEM/TK– cells; for EC50: Human immunodeficiency virus 2, CEM/TK– cells, mean ± SD, n = 2–3, read-out: CEM/TK– HIV-2 (ROD) EC50. The protocol: as §2
Series [9] in a line: Chemical hydrolysis in aqueous buffers (PBS pH 7.3 / 8.0, citrate buffer pH 2.0), RP18-HPLC. It is filed as physicochemical. As to conditions: for half-life at 1.9 mM: phosphate buffered saline. The protocol: All metabolite mixtures were analyzed and quantified by means of analytical RP18-HPLC (UV detection).
The solution was incubated at 37 °C in a thermomixer. […] for each extraction and stored at −30 °C. When testing, samples were warmed up to room temperature, and 25 or 20 μL of the liquid was taken and injected into the analytical RP-18-HPLC instrument. Further aliquots were taken for monitoring the kinetic hydrolysis.
5.88 g of citric acid and 3.58 g of NaCl were dissolved in 82 mL of hydrochloric acid (0.1 mol/L). Then, sodium hydroxide was added to adjust the pH to 2.0.

Series [10] can be described thus: Cytotoxicity, inhibition of CEM cell proliferation. As to conditions: human, CEM cells (CD4+ T-cells), read-out: toxicity CC50. It is filed as cell-based.
Series [11] is described as follows: Cytotoxicity, inhibition of CEM/TK– cell proliferation. It is filed as cell-based. To be noted: human, CEM/TK– cells (CD4+ T-cells), read-out: toxicity CC50.
The subject of series [12] is pig liver esterase (PLE). The arrangement: method as in PMID 26503889. To be noted: cited from earlier work.
Where [13] appears, read: 25 mM PBS, pH 7.3, 37 °C, read-out: PBS pH 7.3 t1/2 (converted).
Setting [14] is: PBS, pH 8.0, 37 °C, read-out: PBS pH 8.0 t1/2 (converted).

Structures are written as SMILES. Where two headings read alike, the source gives them in different places.

As usually defined, the CC50 is the concentration that lowers cell viability or growth by half. With `CCCCCCCCCCCCCCCCCCOP(=O)(OCCCC)OP(=O)(O)OP(=O)(O)OC[C@@H]1C=C[C@H](n2cc(C)c(=O)[nH]c2=O)O1` (stereo partly shown) [3a, γ-(alkyl-C4; alkyl-C18)-d4TTP], in the series with CD4+ T-cell (CEM), the CC50 is 30 µM.
As to `CCCCCCCCCCCCCCCCCCP(=O)(OCc1ccc(OC(=O)CCCC)cc1)OP(=O)(O)OP(=O)(O)OC[C@@H]1C=C[C@H](n2cc(C)c(=O)[nH]c2=O)O1` (stereo partly shown) [2b, γ-(AB-C4)-γ-C-(C18)-d4TTP], in the series on HIV-1 (HE) [1], the EC50 is 0.0074 ± 0.0014 µM. Further, the CC50 in the series on CD4+ T-cell (CEM) is 19 µM. In series [2], the “PBS pH 7.3 t1/2” value is 646 h.
Consider `CCCCCCCCCCCCCCCCCCP(=O)(OCCCC)OP(=O)(O)OP(=O)(O)OC[C@@H]1C=C[C@H](n2cc(C)c(=O)[nH]c2=O)O1` (stereo partly shown) [3b, γ-(alkyl-C4)-γ-C-(alkyl-C18)-d4TTP], for which, in the series on CD4+ T-cell (CEM), the CC50 is 33 µM. For the same molecule, in series [2], the “PBS pH 7.3 t1/2” value is on record as more than 1700 h.
`CCCCCCCCCCCCCCCCCCOP(=O)(OCc1ccc(OC(=O)CCCC)cc1)OP(=O)(O)OP(=O)(O)OP(=O)(O)OC[C@@H]1C=C[C@H](n2cc(C)c(=O)[nH]c2=O)O1` (stereo partly shown) [compound 6, δ-(AB-C4; alkyl-C18)-d4T4P]: the EC50 with HIV-1 (HE) [3] stood at 0.083 ± 0.018 µM; with HIV-2 (ROD) [5], 0.063 ± 0.032 µM; with HIV-2 (ROD) [8], 0.059 ± 0.054 µM. For the same molecule, the half-life at 0.86 mM was 2.1 h in [4] and 6.67 h in [7]. Moreover, the “selectivity index (SI)” value in the series on HIV-2 (ROD) [5] was 643; with HIV-2 (ROD) [8] it was 813. Moreover, in the series on pig liver esterase (PLE) [6], the half-life at 0.45 mM was 1.06 h. Also, in series [9] (25 mM citrate buffer, pH 2.0, 37 °C), the half-life was 27 h. In addition, the half-life at 1.9 mM was 77 h in [9] (setting [13]) and 99 h in series [9] (setting [14]). In addition, the CC50 in series [10] is 40.5 µM; in series [11] it was 48 µM.
Take `CCCCCCCCCC(=O)Oc1ccc(COP(=O)(OCc2ccc(OC(=O)CCCCCCCCC)cc2)OP(=O)(O)OP(=O)(O)OP(=O)(O)OC[C@@H]2C=C[C@H](n3cc(C)c(=O)[nH]c3=O)O2)cc1` [compound 8, δ-(AB-C9; AB-C9)-d4T4P]: the EC50 was found to be 0.39 ± 0.16 µM in the series on HIV-1 (HE) [3], 0.26 ± 0.14 µM with HIV-2 (ROD) [5] and 4.44 ± 1.54 µM in the series with HIV-2 (ROD) [8]. Further, the half-life at 0.86 mM in series [4] is 2.8 h; in series [7], 1.37 h. The “selectivity index (SI)” value with HIV-2 (ROD) [5] turned out to be 173; with HIV-2 (ROD) [8], 11. In addition, the half-life at 0.45 mM with pig liver esterase (PLE) [6] is 0.07 h. Besides, in [9] (setting [13]), the half-life at 1.9 mM is 26 h. In addition, the CC50 amounted to 45 µM in [10] and 50 µM in [11].
Regarding `CCCCCCCCCC(=O)Oc1ccc(COP(=O)(OCc2ccc(OC(=O)CCCCCCCCC)cc2)OP(=O)(O)OP(=O)(O)OC[C@@H]2C=C[C@H](n3cc(C)c(=O)[nH]c3=O)O2)cc1` [1a, γ-(AB-C9; AB-C9)-d4TTP, reference compound], the EC50 with HIV-1 (HE) [3] is 0.042 ± 0.02 µM; in the series with HIV-2 (ROD) [5] it was 0.066 ± 0.026 µM; in the series with HIV-2 (ROD) [8], 0.29 ± 0.19 µM. For the same molecule, the figures for the “selectivity index (SI)” value with HIV-2 (ROD) [5] and in the series on HIV-2 (ROD) [8] were 1109 and 172, respectively. Moreover, the “PLE t1/2” value with pig liver esterase (PLE) [12] was 0.082[43] h. For the same molecule, the half-life at 1.9 mM in series [9] (setting [14]) is 68 h. Further, the “PBS pH 7.3 t1/2” value in series [2] is 44[43] h. Moreover, the values for the CC50 in series [10] and in series [11] were 73.2 µM and 50 µM, respectively.
